Reference: article PMC6268941, “The Binding Affinity and Molecular Basis of the Structure-Binding Relationship between Urinary Tamm-Horsfall Glycoprotein and Tumor Necrosis Factor-α” (Molecules, 2012)

What follows are compounds tested against T1, THP-TNF-α (Tamm-Horsfall glycoprotein / tumor necrosis factor-α binding pair) (Homo sapiens, UniProt P01375+P07911) (assay: ELISA, monosaccharide inhibition of THP-TNF-α binding). Conditions: 10 µg sugar preincubated overnight at 4 °C with coated TNF-α or coated THP, then the other protein added; which partner holds the sugar is not resolved.
T1 construct: recombinant human TNF-α (R&D Systems, 17 kDa); native THP purified from normal human urine (80-90 kDa)
T1 sequence (P01375 77-233, other chains not shown): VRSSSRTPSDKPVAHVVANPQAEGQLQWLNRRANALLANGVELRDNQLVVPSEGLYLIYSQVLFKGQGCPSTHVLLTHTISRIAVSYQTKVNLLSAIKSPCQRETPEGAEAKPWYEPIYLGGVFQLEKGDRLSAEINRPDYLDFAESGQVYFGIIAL
For CO[C@H]1O[C@H](CO)[C@@H](O)[C@H](O)[C@@H]1O [α-methyl-D-mannoside], the “ELISA, monosaccharide inhibition of THP-TNF-α binding” value (“ELISA, monosaccharide inhibition” below) was “mannose, GlcNAc, and GalNAc significantly suppressed THP-TNF-α binding”.
With CC(=O)N[C@H]1C(O)O[C@H](CO)[C@@H](O)[C@@H]1O (stereo partly drawn) [N-acetyl-glucosamine] the “ELISA, monosaccharide inhibition” value was “mannose, GlcNAc, and GalNAc significantly suppressed THP-TNF-α binding”.
In the case of CC(=O)N[C@H]1C(O)O[C@H](CO)[C@H](O)[C@@H]1O (stereo partly drawn) [N-acetyl-galactosamine], the “ELISA, monosaccharide inhibition” value is reported as “mannose, GlcNAc, and GalNAc significantly suppressed THP-TNF-α binding”.
